Assay results as given in patent US20030139616A1, “Method of searching for arteriosclerosis inhibitors and shrinkers” (priority 2000, published 2003).
Each block holds one compound with its values, some of them ahead of it.

How the values were obtained:
[1] = system: Mouse peritoneal macrophages; experiment: Inhibitory action on synthesis of intracellular cholesteryl esters; format: cell-based; details: for Content of intracellular cholesteryl esters (control group = 100%) TLC method Mean / Content of intracellular cholesteryl esters (control group = 100%) Methanol method Mean: 24 hours, 25-hydroxycholesterol
Method: Mouse peritoneal macrophages prepared in the method described in Example 1 were cultured for 24 hours in an RPMI 1640-25 mM HEPES medium (pH 7) containing 1% fetal bovine serum and [1,2,6,7-^3H]-cholesterol (37 Kbq/ml, NEN Ltd.). The macrophages were labeled with ^3H-cholesterol and then cultured for 24 hours in an RPMI 1640-25 mM HEPES medium (pH 7) containing 2-[6-chloro-4-(2-methylphenyl)-2-oxo-2H-chromene-3-yl]-N-(2,6-dimethoxyphenyl) acetamide (referred to hereinafter as Compound A), 25-hydroxycholesterol (5 μg/ml, Sigma) and 0.2 mM oleic acid/0.2% bovine serum albumin, and the content of synthesized intracellular cholesteryl esters was quantified by the TLC fractionation method or the aqueous methanol extraction method (hereinafter also referred to as the methanol method). The measurement by the TLC fractionation method was conducted by extracting the whole intracellular lipid with a hexane-isopropanol mixture (3:2, v/v) and then fractionating the lipid in TLC under the same conditions as in Example 1 to quantify the intracellular cholesteryl esters. The measurement by the aqueous methanol extraction method was conducted by treating the cells with 80% methanol for 10 minutes, then solubilizing the cells with 0.1 N NaOH/0.1% SDS solution, and measuring their radioactivity. Each value of radioactivity was corrected by the amount of cell proteins measured with a BCA assay kit (Pierce Ltd.) after the cells were solubilized with 0.1 N NaOH/0.1% SDS solution, and assuming that the radioactivity (dpm/mg cell protein) of the control group in the absence of the test compound was 100%, the content of intracellular cholesteryl esters (%) in the group treated with Compound A was calculated.

[2] = system: Foam cells derived from mouse peritoneal macrophages; experiment: Promoting action on decomposition of intracellular cholesteryl esters; format: cell-based; details: for Content of intracellular cholesteryl esters (control group = 100%) TLC method Mean / Content of intracellular cholesteryl esters (control group = 100%) Methanol method Mean: 48 hours
Method: Foam cells derived from mouse peritoneal macrophages, prepared in the method described in Example 1, were cultured for 48 hours in an RPMI 1640-25 mM HEPES medium (pH 7) containing Compound A, and a reduction in the intracellular cholesteryl ester content was quantified by a TLC fractionation method or an aqueous methanol extraction method. The measurement by the TLC fractionation method was conducted by extracting the whole intracellular lipid with a hexane-isopropanol mixture (3:2, v/v) and then fractionating the lipid by TLC under the same conditions as in Example 1 to quantify the intracellular cholesteryl esters. The measurement by the aqueous methanol extraction method was conducted by treating the cells with 80% methanol for 10 minutes, then solubilizing the cells with 0.1 N NaOH/0.1% SDS solution, and measuring their radioactivity. Each value of radioactivity was corrected by the amount of cell proteins measured with a BCA assay kit (Pierce Ltd.) after the cells were solubilized with 0.1 N NaOH/0.1% SDS solution, and assuming that the radioactivity (dpm/mg cell protein) of the control group in the absence of the test compound was 100%, the content of intracellular cholesteryl esters (%) in the group treated with Compound A was calculated.

[3] = system: foam mouse macrophages; experiment: Defoaming-promoting activity (cholesterol efflux into medium); format: cell-based; details: for Amount of cholesterol transferred (control group = 100%) Mean: method of Example 4; for action on transfer of cholesterol: result in words, summary of Tables 3 and 7
Method: The activity of the test compound on defoaming was measured by treating the foam mouse macrophages prepared in Example 1, with RPMI 1640-25 mM HEPES medium (pH 7) containing the test compound for 24 hours, followed by adding 20% fetal bovine serum (JRH Ltd.), and determining the radioactivity released into the medium after further culture for 24 hours. The defoaming-promoting activity of a group treated with the compound was calculated as a ratio (%) of the radioactivity corrected by a blank value to that of a control group. The blank value used was the radioactivity in the absence of the test compound and 20% fetal bovine serum. The defoaming-promoting activities of the control group and the group treated with the compound were corrected by the amount of cell protein measured by the BCA assay kit from Pierce Ltd. after the cells were solubilized with 0.1 N NaOH/0.1% SDS solution.
The promoting action of Compound A on defoaming was measured by using the method described in Example 4.

[4] = system: foamed macrophages; experiment: Intracellular cholesteryl ester content by enzyme method; format: cell-based, mouse; details: for Content of intracellular cholesteryl esters (control group = 100%) Mean: method of Example 5 (enzyme method); for action on reduction of the cholesteryl ester content: result in words, summary of Tables 4 and 8
Method: The mouse peritoneal macrophages prepared in Example 1 were cultured for 24 hours in an RPMI 1640-25 mM HEPES medium (pH 7) containing β-VLDL (150 μg/ml) and a conjugate of 0.2 mM oleic acid/0/2% bovine serum albumin to obtain foam cells in which cholesteryl esters were accumulated. These foamed macrophages were treated with an RPMI 1640-25 mM HEPES medium (pH 7) containing the test compound for 24 hours, and then the whole lipid was extracted. The lipid thus extracted was dissolved in isopropanol and measured for the amounts of the whole cholesterol and free cholesterol by the enzyme method (E-Test Wako, Wako Ltd.), and, from the difference therebetween, the amount of cholesteryl esters was calculated. The amounts of cell protein in a control group and a group treated with the compound were measured with a BCA assay kit from Pierce Ltd. after the cells were solubilized with 0.1 N NaOH/0.1% SDS solution, and assuming that the amount of cholesteryl esters (μg/mg cell protein) in the cells in the control group was 100%, the amount of cholesteryl esters (%) in the group treated with the compound was calculated.
The action of Compound A on reduction of the content of intracellular cholesteryl esters was measured by using the method described in Example 5.

[5] = system: foam macrophages; experiment: Measurement of regulatory activity on intracellular cholesteryl ester cycle (aqueous methanol extraction); format: cell-based, mouse
Method: According to the method of Hakamada et al. (“Jikken Igaku (Experimental Medicine), Extra Issue”, vol. 14, No. 12, Circulation Study Protocol, pp. 49-52 (1996)), peritoneal macrophages were prepared from C57BL6J mice stimulated with thioglycolate, and then cultured for 24 hours in RPMI 1640-25 mM HEPES (pH 7) containing β-very low-density lipoprotein (β-VLDL, 150 μg cholesterol/ml) prepared according to the method of Ishii et al. (Arterioscler. Thromb., 12, 1139-1145, 1992), a conjugate of 0.2 mM oleic acid/0.2% bovine serum albumin, and [1,2,6,7-^3H]-cholesterol (NEN, 37 KBq/ml) to obtain foam cells in which cholesteryl esters were accumulated. […] A part of the extract was fractionated by the TLC method (Merck Silica Gel Plate No. 5582, developing solvent: petroleum ether/diethyl ether/acetic acid=9:1:0.1), free cholesterol and cholesteryl ester fractions were cut off, a liquid scintillator was added, and the radioactivity thereof was measured.
In an RPMI 1640-HEPES medium (pH 7) containing the test compound, the foam macrophages prepared in Example 1 were cultured for 24 hours. The cells were extracted with 80% aqueous methanol for 10 minutes and then solubilized with 0.1 NaOH/0.1% SDS solution, a liquid scintillator was added to a portion thereof, and its radioactivity was measured. […]

Content of intracellular cholesteryl esters (control group = 100%) Mean ([4]; 0.01 mM): 63% | Content of intracellular cholesteryl esters (control group = 100%) Mean ([4]; 0.1 mM): 48% | action on reduction of the cholesteryl ester content [4]: strong action
Compound: COc1cccc(OC)c1NC(=O)Cc1c(-c2ccccc2C)c2cc(Cl)ccc2oc1=O [Compound A, 2-[6-chloro-4-(2-methylphenyl)-2-oxo-2H-chromene-3-yl]-N-(2,6-dimethoxyphenyl) acetamide]
Content of intracellular cholesteryl esters (control group = 100%) TLC method Mean ([1]; 0.01 mM): 44% | Content of intracellular cholesteryl esters (control group = 100%) Methanol method Mean ([1]; 0.01 mM): 41% | Content of intracellular cholesteryl esters (control group = 100%) TLC method Mean ([1]; 0.03 mM): 16% | Content of intracellular cholesteryl esters (control group = 100%) Methanol method Mean ([1]; 0.03 mM): 19% | Content of intracellular cholesteryl esters (control group = 100%) TLC method Mean ([1]; 0.1 mM): 5% | Content of intracellular cholesteryl esters (control group = 100%) Methanol method Mean ([1]; 0.1 mM): 9% | inhibitory activity on synthesis of cholesteryl esters ([1]; result in words, summary of Table 5): potent inhibitory activity | Content of intracellular cholesteryl esters (control group = 100%) TLC method Mean ([2]; 0.01 mM): 71% | Content of intracellular cholesteryl esters (control group = 100%) Methanol method Mean ([2]; 0.01 mM): 74% | Content of intracellular cholesteryl esters (control group = 100%) TLC method Mean ([2]; 0.1 mM): 8% | Content of intracellular cholesteryl esters (control group = 100%) Methanol method Mean ([2]; 0.1 mM): 14% | promoting activity on degradation of cholesteryl esters ([2]; result in words, summary of Table 6): strong promoting activity | Amount of cholesterol transferred (control group = 100%) Mean ([3]; 0.01 mM): 142% | Amount of cholesterol transferred (control group = 100%) Mean ([3]; 0.1 mM): 191% | action on transfer of cholesterol [3]: strong action

Cholesteryl ester content (%) ([4]; 100 μM, 24 hours, enzyme method, control = 100%): 78 ± 4 p < 0.01 % | action on reduction of the cholesteryl ester content [4]: exerts an action
Compound: CCCC(=O)Nc1ncnc2c1ncn2[C@@H]1O[C@@H]2COP(=O)(O)O[C@H]2[C@H]1OC(=O)CCC [dbc-AMP, Dibutyryl cyclic AMP, reference compound]
Cholesteryl ester content (%) ([5]; 100 μM, 24 hours, 80% aqueous methanol extraction, control = 100%): 60 ± 12 p < 0.01 % | cholesteryl ester cycle-regulating action ([5]; result in words, summary of Table 2): potent cholesteryl ester-hydrolytic activity | Amount of cholesterol efflux (%) ([3]; 100 μM, 24 hours then 20% fetal bovine serum 24 hours, control = 100%): 160 ± 15 p < 0.01 % | action on transfer of cholesterol [3]: exerts an action
